The values that follow are results of earlier work, collected in patent publication US11202772B2, “Duloxetine sprinkles” (priority 2016, dated 2021).

Each structure is given as a SMILES string.

For the molecule `CNCCC(Oc1cccc2ccccc12)c1cccs1` (single isomer, unassigned; (+)) [Duloxetine, (+)-N-methyl-3-(1-naphthalenyloxy)-3-(2-thienyl)propan-1-amine], the “drug in the dosage hydrolyzed to 1-naphthol” value (pH 1.0) is 50%. For the same molecule, the “drug degrades to 1-naphthol” value (pH of 2.0, in one hour) was 10%. For the same molecule, where the note is “pH of 4.0”, the “time for 10% degradation” value is reported as “up to 63 hours”.
